Measurements taken from patent US20250340551A1, “SMALL MOLECULE MODULATORS OF STAT6” (Gilead Sciences, Inc., priority 2024, published 2025).

Experiments:
[1] = target: human STAT6 (Homo sapiens (Human), UniProt P42226); test: Surface plasmon resonance assay (Biacore 8K, binding to immobilized STAT6); settings: human STAT6 aa122-658, N-terminal His-tag, CM5 chip, 25° C.; geometric mean; read-out: STAT6 SPR Kd
In short: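 Run at 25° C with His-tagged STAT6 aa122-658 (insect-cell expressed) amine-coupled to a CM5 chip, reference-subtracted, in PBS-P+ with 2% DMSO. Multi-cycle kinetics: 60 sec. contact, up to 300 sec. dissociation. Affinity fitted from late report-point binding isotherms, with Rmax both free and fixed to theoretical 1:1.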

[2] = system: Eotaxin-3 (CCL26) release in human whole blood stimulated with IL-4; test: Human whole blood eotaxin-3 assay (IL-4 stimulated, Eotaxin-3 release); type: cell-based; settings: for Emax: 48 h
In short: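 Lithium-heparin blood preincubated 2 h at 37° C with 4-fold compound dilutions (0.5% DMSO, triplicates), then stimulated with 400 pM recombinant human IL-4 for 48 h. Eotaxin-3 in plasma supernatant measured by MSD immunoassay.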

Sequence of human STAT6 (P42226 122-658): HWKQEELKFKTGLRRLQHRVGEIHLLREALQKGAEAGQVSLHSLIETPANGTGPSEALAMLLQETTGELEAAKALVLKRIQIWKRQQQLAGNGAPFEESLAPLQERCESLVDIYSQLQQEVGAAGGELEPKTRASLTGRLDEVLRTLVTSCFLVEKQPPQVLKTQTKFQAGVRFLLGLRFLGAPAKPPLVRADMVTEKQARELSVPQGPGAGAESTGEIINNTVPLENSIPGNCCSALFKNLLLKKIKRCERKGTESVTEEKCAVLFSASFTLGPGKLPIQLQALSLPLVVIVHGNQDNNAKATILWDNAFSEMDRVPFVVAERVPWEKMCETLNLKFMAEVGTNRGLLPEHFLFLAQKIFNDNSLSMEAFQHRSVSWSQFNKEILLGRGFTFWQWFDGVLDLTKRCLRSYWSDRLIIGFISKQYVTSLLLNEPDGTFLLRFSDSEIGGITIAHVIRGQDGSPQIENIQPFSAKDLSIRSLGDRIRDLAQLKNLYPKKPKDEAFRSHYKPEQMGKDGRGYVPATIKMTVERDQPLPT

Molecule | EC50 ([2]; Homo sapiens, Hec50, 48 h) | other results
4-[1-[[4-(6-Amino-2-methoxy-3-pyridyl)-1-methyl-pyrrolo[2,3-b]pyridin-2-yl]methyl]-4-piperidyl]-N,N-bis(trideuteriomethyl)benzamide [Example 1k44] |  | Kd [1]: 25.6 nM; Eotaxin-3 Emax (%) ([2]; human whole blood, 400 pM recombinant human IL-4, 48 h, Emax provided for compounds with <80% Emax, geometric mean): 77%
4-[1-[[4-(6-Amino-2-methyl-3-pyridyl)-1-methyl-pyrrolo[2,3-b]pyridin-2-yl]methyl]-4-piperidyl]-N,N-dimethyl-benzamide [Example 1k12] |  | Kd [1]: 20.1 nM; EC50 ([2]; human whole blood, 400 pM recombinant human IL-4, 48 h, EC50 provided for compounds with >80% Emax, geometric mean): 15700 nM
CNc1ccc(-c2ccnc3c2cc([C@@H](C)N2CCC(c4ccc(C(=O)N(C)C)cc4)CC2)n3C)cn1 (single isomer, unassigned) [Example 1af8] | 369 nM | Kd [1]: 14.6 nM
C[C@@H]1C[C@H](c2ccc(C(=O)N(C)C)cc2)CCN1Cc1cc2c(-c3ccc(N)cn3)ccnc2n1C (single isomer, unassigned) [Example 1q1] | 370 nM | Kd [1]: 18.1 nM
C[C@H]1C[C@@H](c2ccc(C(=O)N(C)C)cc2)CCN1Cc1cc2c(-c3ccc(N)nc3C#N)ccnc2n1C (single isomer, unassigned) [Example 1q5] | 651 nM | Kd [1]: 57.4 nM
C[C@H]1C[C@@H](c2ccc(C(=O)N(C)C)cc2)CCN1Cc1cc2c(-c3ccc(N)cn3)ccnc2n1C (single isomer, unassigned) [Example 1q6] | 3080 nM | Kd [1]: 47.4 nM
CN(C)C(=O)c1ncc(C2=CCN(Cc3cc4c(-c5ccc(N)nn5)ccnc4n3C)CC2)cn1 [Example 1z21, 5-(1-((4-(6-aminopyridazin-3-yl)-1-methyl-1H-pyrrolo[2,3-b]pyridin-2-yl)methyl)-1,2,3,6-tetrahydropyridin-4-yl)-N,N-dimethylpyrimidine-2-carboxamide] |  | Emax ([2]; Homo sapiens): 20 to 30%
CN(C)C(=O)c1ccc(C2CCN(Cc3cc4c(-c5ccc(N)nn5)ccnc4n3C)CC2)cc1 [Example 1z22, 4-(1-((4-(6-aminopyridazin-3-yl)-1-methyl-1H-pyrrolo[2,3-b]pyridin-2-yl)methyl)piperidin-4-yl)-N,N-dimethylbenzamide] |  | Emax ([2]; Homo sapiens): < 20%
CN(C)C(=O)c1ccc(C2=CCN(Cc3cc4c(-c5ccc(N)nc5)ccnc4n3C)CC2)c(C2CC2)c1 [Example 1z23, 4-(1-((4-(6-aminopyridin-3-yl)-1-methyl-1H-pyrrolo[2,3-b]pyridin-2-yl)methyl)-1,2,3,6-tetrahydropyridin-4-yl)-3-cyclopropyl-N,N-dimethylbenzamide] | 853 nM | 
Cc1cc(C(=O)N(C)C)cc(F)c1C1=CCN([C@@H](C)c2cc3c(-c4ccc(N)nc4)ccnc3n2C)CC1 [Example 1z29, (S)-4-(1-(1-(4-(6-aminopyridin-3-yl)-1-methyl-1H-pyrrolo[2,3-b]pyridin-2-yl)ethyl)-1,2,3,6-tetrahydropyridin-4-yl)-3-fluoro-N,N,5-trimethylbenzamide] | 1060 nM | 
Cc1cc(C(=O)N(C)C)cc(F)c1C1=CCN([C@H](C)c2cc3c(-c4ccc(N)cn4)ccnc3n2C)CC1 [Example 1z33, (R)-4-(1-(1-(4-(5-aminopyridin-2-yl)-1-methyl-1H-pyrrolo[2,3-b]pyridin-2-yl)ethyl)-1,2,3,6-tetrahydropyridin-4-yl)-3-fluoro-N,N,5-trimethylbenzamide] | 431 nM | 
CNc1ccc(-c2ccnc3c2cc([C@H](C)N2CC=C(c4c(C)cc(C(=O)N(C)C)cc4F)CC2)n3C)cn1 [Example 1z37, (S)-3-fluoro-N,N,5-trimethyl-4-(1-(1-(1-methyl-4-(6-(methylamino)pyridin-3-yl)-1H-pyrrolo[2,3-b]pyridin-2-yl)ethyl)-1,2,3,6-tetrahydropyridin-4-yl)benzamide] | 439 nM | 
CNc1ccc(-c2ccnc3c2cc(C(C)N2CC=C(c4c(C)cc(C(=O)N(C)C)cc4F)CC2)n3C)nc1 (stereo not shown) [Example 1z39, 3-fluoro-N,N,5-trimethyl-4-(1-(1-(1-methyl-4-(5-(methylamino)pyridin-2-yl)-1H-pyrrolo[2,3-b]pyridin-2-yl)ethyl)-1,2,3,6-tetrahydropyridin-4-yl)benzamide] | 301 nM | 
CNc1ccc(-c2ccnc3c2cc([C@H](C)N2CC=C(c4c(C)cc(C(=O)N(C)C)cc4F)CC2)n3C)nc1 [Example 1z40, (S)-3-fluoro-N,N,5-trimethyl-4-(1-(1-(1-methyl-4-(5-(methylamino)pyridin-2-yl)-1H-pyrrolo[2,3-b]pyridin-2-yl)ethyl)-1,2,3,6-tetrahydropyridin-4-yl)benzamide] | 3290 nM | 
CN(C)C(=O)c1ccc(C2=CCN(Cc3cc4c(-c5ccc(N)nc5)ccnc4n3C)CC2)c(OC(F)(F)F)c1 [Example 1z45, 4-(1-((4-(6-aminopyridin-3-yl)-1-methyl-1H-pyrrolo[2,3-b]pyridin-2-yl)methyl)-1,2,3,6-tetrahydropyridin-4-yl)-N,N-dimethyl-3-(trifluoromethoxy)benzamide] | 798 nM | 

Now from value to molecule, other results behind:

EC50 ([2]; Homo sapiens, Hec50, 48 h) | Molecule | other results
138 nM | C[C@@H]1C[C@H](c2ccc(C(=O)N(C)C)cc2)CCN1Cc1cc2c(-c3ccc(N)nc3C#N)ccnc2n1C (single isomer, unassigned) [Example 1q4] | Kd [1]: 18.4 nM
21.6 nM | Cc1cc(C(=O)N(C)C)cc(F)c1C1=CCN(C(C)c2cc3c(-c4ccc(N)nc4)ccnc3n2C)CC1 (stereo not shown) [Example 1z28, 4-(1-(1-(4-(6-aminopyridin-3-yl)-1-methyl-1H-pyrrolo[2,3-b]pyridin-2-yl)ethyl)-1,2,3,6-tetrahydropyridin-4-yl)-3-fluoro-N,N,5-trimethylbenzamide] | 
10.2 nM | Cc1cc(C(=O)N(C)C)cc(F)c1C1=CCN([C@H](C)c2cc3c(-c4ccc(N)nc4)ccnc3n2C)CC1 [Example 1z30, (R)-4-(1-(1-(4-(6-aminopyridin-3-yl)-1-methyl-1H-pyrrolo[2,3-b]pyridin-2-yl)ethyl)-1,2,3,6-tetrahydropyridin-4-yl)-3-fluoro-N,N,5-trimethylbenzamide] | 
62.8 nM | Cc1cc(C(=O)N(C)C)cc(F)c1C1=CCN(C(C)c2cc3c(-c4ccc(N)cn4)ccnc3n2C)CC1 (stereo not shown) [Example 1z31, 4-(1-(1-(4-(5-aminopyridin-2-yl)-1-methyl-1H-pyrrolo[2,3-b]pyridin-2-yl)ethyl)-1,2,3,6-tetrahydropyridin-4-yl)-3-fluoro-N,N,5-trimethylbenzamide] | 
37.6 nM | Cc1cc(C(=O)N(C)C)cc(F)c1C1=CCN([C@@H](C)c2cc3c(-c4ccc(N)cn4)ccnc3n2C)CC1 [Example 1z32, (S)-4-(1-(1-(4-(5-aminopyridin-2-yl)-1-methyl-1H-pyrrolo[2,3-b]pyridin-2-yl)ethyl)-1,2,3,6-tetrahydropyridin-4-yl)-3-fluoro-N,N,5-trimethylbenzamide] | 
132 nM | [2H]C([2H])([2H])N(C(=O)c1cc(C)c(C2=CCN(Cc3cc4c(-c5ccc(NC)nn5)ccnc4n3C)CC2)c(F)c1)C([2H])([2H])[2H] [Example 1z34, 3-fluoro-5-methyl-N,N-bis(methyl-d3)-4-(1-((1-methyl-4-(6-(methylamino)pyridazin-3-yl)-1H-pyrrolo[2,3-b]pyridin-2-yl)methyl)-1,2,3,6-tetrahydropyridin-4-yl)benzamide] | 
81.8 nM | CN(C)C(=O)c1cc(F)c(C2=CCN(Cc3cc4c(-c5ccc(N)nc5)ccnc4n3C)CC2)c(C2CC2)c1 [Example 1z35, 4-(1-((4-(6-aminopyridin-3-yl)-1-methyl-1H-pyrrolo[2,3-b]pyridin-2-yl)methyl)-1,2,3,6-tetrahydropyridin-4-yl)-3-cyclopropyl-5-fluoro-N,N-dimethylbenzamide] | 
38.6 nM | CNc1ccc(-c2ccnc3c2cc(C(C)N2CC=C(c4c(C)cc(C(=O)N(C)C)cc4F)CC2)n3C)cn1 (stereo not shown) [Example 1z36, 3-fluoro-N,N,5-trimethyl-4-(1-(1-(1-methyl-4-(6-(methylamino)pyridin-3-yl)-1H-pyrrolo[2,3-b]pyridin-2-yl)ethyl)-1,2,3,6-tetrahydropyridin-4-yl)benzamide] | 
12.9 nM | CNc1ccc(-c2ccnc3c2cc([C@@H](C)N2CC=C(c4c(C)cc(C(=O)N(C)C)cc4F)CC2)n3C)cn1 [Example 1z38, (R)-3-fluoro-N,N,5-trimethyl-4-(1-(1-(1-methyl-4-(6-(methyl-amino)pyridin-3-yl)-1H-pyrrolo[2,3-b]pyridin-2-yl)ethyl)-1,2,3,6-tetrahydropyridin-4-yl)benzamide] | 
110 nM | CNc1ccc(-c2ccnc3c2cc([C@@H](C)N2CC=C(c4c(C)cc(C(=O)N(C)C)cc4F)CC2)n3C)nc1 [Example 1z41, (R)-3-fluoro-N,N,5-trimethyl-4-(1-(1-(1-methyl-4-(5-(methyl-amino)pyridin-2-yl)-1H-pyrrolo[2,3-b]pyridin-2-yl)ethyl)-1,2,3,6-tetrahydropyridin-4-yl)benzamide] | 
97.3 nM | CN(C)C(=O)c1cc(F)c(C2=CCN(Cc3cc4c(-c5ccc(N)nc5C#N)ccnc4n3C)CC2)c(F)c1 [Example 1z42, 4-(1-((4-(6-amino-2-cyanopyridin-3-yl)-1-methyl-1H-pyrrolo[2,3-b]pyridin-2-yl)methyl)-1,2,3,6-tetrahydropyridin-4-yl)-3,5-difluoro-N,N-dimethylbenzamide] | 
39.5 nM | [2H]C([2H])([2H])N(C(=O)c1cc(C)c(C2=CCN([C@@H](C)c3cc4c(-c5ccc(NC)nn5)ccnc4n3C)CC2)c(F)c1)C([2H])([2H])[2H] [Example 1z44, (S)-3-fluoro-5-methyl-N,N-bis(methyl-d3)-4-(1-(1-(1-methyl-4-(6-(methylamino)-pyridazin-3-yl)-1H-pyrrolo[2,3-b]pyridin-2-yl)ethyl)-1,2,3,6-tetrahydropyridin-4-yl)benzamide] | 
